According to ChEMBL document CHEMBL1201862, “PubChem BioAssay data set” (2004):
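Grown in 96-well plates, cells were treated for 48 hours with each compound at five concentrations. Insufficient inhibition: endpoint recorded as highest concentration tested. GI50 is the concentration that inhibits growth by half.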 The source made the active and inactive calls. No stated cut-off is given here; in the data, active = GI50 up to about 1.1 µM and inactive = higher.

Key:
Experiment in all cases: inhibition of tumour cell growth, NCI panel, 48 h
[1] = test system: HL-60
[2] = test system: A549
[3] = test system: HT-29
[4] = test system: MDA-MB-435
[5] = test system: LOX IMVI
[6] = test system: SF-539
[7] = test system: Malme-3M
[8] = test system: COLO 205
[9] = test system: NCI-H23
[10] = test system: CCRF-CEM
[11] = test system: SK-MEL-5
[12] = test system: OVCAR-3
[13] = test system: SF-268
[14] = test system: T47D
[15] = test system: SW-620
[16] = test system: HCC 2998
[17] = test system: OVCAR-4
[18] = test system: Hs-578T
[19] = test system: OVCAR-5
[20] = test system: M14

Measured: GI50

Cc1nc2ccc(F)cc2c2c1CCN2c1ccccc1
inactive: [1] 7.43 µM | [2] 22.6 µM | [3] 8.51 µM | [4] 14.1 µM | [5] 13.8 µM | [6] 21 µM | [7] 20.2 µM | [8] 11.9 µM | [9] 20 µM | [10] 21.5 µM | [11] 12.9 µM | [12] 30.5 µM | [13] 23.3 µM | [14] 23.7 µM | [15] 23.4 µM | [16] 18.1 µM | [17] 23.7 µM | [18] 17.9 µM

O=C(NN=C1NCCCCN1)Nc1ccc(Cl)cc1
inactive: [1] 26.5 µM | [2] > 100 µM | [3] > 100 µM | [4] > 100 µM | [5] > 100 µM | [6] > 100 µM | [19] > 100 µM | [7] > 100 µM | [8] > 100 µM | [9] > 100 µM | [10] 47.2 µM | [11] > 100 µM | [12] > 100 µM | [13] 93.1 µM | [14] > 100 µM | [15] > 100 µM | [16] > 100 µM | [17] > 100 µM | [18] > 100 µM

c1ccc(/N=C2\c3ccccc3CN2c2ccccc2)cc1
inactive: [1] > 100 µM | [2] > 100 µM | [3] > 100 µM | [4] > 100 µM | [5] > 100 µM | [6] > 100 µM | [7] > 100 µM | [8] > 100 µM | [9] > 100 µM | [10] > 100 µM | [11] > 100 µM | [12] > 100 µM | [13] > 100 µM | [20] > 100 µM | [14] 80.2 µM | [15] > 100 µM | [16] > 100 µM | [17] > 100 µM | [18] > 100 µM

CNC(=O)CCC(NC(=O)OC(C)(C)C)C(=O)NC(Cc1ccc(NC(=O)CCCCC(C)=O)cc1)C(=O)NCC(=O)NC (configuration not stated)
inactive: [1] > 100 µM | [2] > 100 µM | [3] > 100 µM | [4] > 100 µM | [5] > 100 µM | [6] > 100 µM | [19] > 100 µM | [7] > 100 µM | [8] > 100 µM | [9] > 100 µM | [11] > 100 µM | [12] > 100 µM | [13] > 100 µM | [20] > 100 µM | [14] > 100 µM | [15] > 100 µM | [16] > 100 µM | [17] > 100 µM | [18] > 100 µM

COC(=O)c1c2c(cc3c1CC1(Cc4cc5c(c(C=O)c4C1)CCC5)C3)CCC2 (configuration not stated)
inactive: [1] 25.8 µM | [2] 27.9 µM | [3] 21.4 µM | [4] 17.7 µM | [5] 22.5 µM | [6] 75.5 µM | [19] 67.8 µM | [7] 22.9 µM | [9] 47.8 µM | [10] 13.4 µM | [11] 16 µM | [12] 23.3 µM | [13] 50.7 µM | [20] 22.2 µM | [14] 30.7 µM | [15] 53.2 µM | [16] 24.7 µM | [17] > 100 µM | [18] 92.7 µM

CC(=O)OCC12C(=O)C[C@@H](C)C3(CC(c4ccoc4)OC3=O)C1CCC(OC(C)=O)C21CO1 (some centres not stated)
inactive: [1] > 100 µM | [2] > 100 µM | [3] > 100 µM | [4] > 100 µM | [5] > 100 µM | [6] > 100 µM | [19] > 100 µM | [7] > 100 µM | [8] > 100 µM | [9] > 100 µM | [11] > 100 µM | [12] > 100 µM | [13] > 100 µM | [20] > 100 µM | [14] > 100 µM | [15] > 100 µM | [16] > 100 µM | [17] > 100 µM | [18] > 100 µM

Cc1cc2c(cc1C)C(=O)C1(C2)Cc2c(C)ccc(C)c2C1=O (configuration not stated)
inactive: [1] > 100 µM | [2] > 100 µM | [4] > 100 µM | [5] > 100 µM | [6] > 100 µM | [19] > 100 µM | [7] 84.9 µM | [8] > 100 µM | [10] > 100 µM | [11] > 100 µM | [12] > 100 µM | [13] > 100 µM | [20] > 100 µM | [14] 25.2 µM | [15] > 100 µM | [16] > 100 µM | [17] > 100 µM | [18] 84.5 µM

O=C(N/N=C(COc1cccc(Cl)c1)\N=C\c1ccncc1)c1ccncc1
inactive: [1] > 100 µM | [2] > 100 µM | [3] > 100 µM | [4] 75.3 µM | [5] > 100 µM | [6] > 100 µM | [19] > 100 µM | [7] > 100 µM | [8] > 100 µM | [9] > 100 µM | [10] > 100 µM | [12] > 100 µM | [13] > 100 µM | [20] > 100 µM | [14] > 100 µM | [15] > 100 µM | [16] > 100 µM | [17] > 100 µM | [18] > 100 µM

OC(C#CCN1CCCC1)(c1ccccc1)c1ccccc1Cl (configuration not stated)
inactive: [1] 26.8 µM | [2] 33.4 µM | [3] 16.5 µM | [4] 23.2 µM | [5] 18.7 µM | [6] 26.5 µM | [19] > 100 µM | [7] > 10 µM | [8] 12.5 µM | [9] 37.3 µM | [10] 33.6 µM | [11] 17.7 µM | [12] 82.8 µM | [13] 44.2 µM | [14] 28.6 µM | [15] 18.5 µM | [16] 21.8 µM | [17] 31 µM | [18] 31 µM

COC(=O)c1c2c(cc3c1CC1(Cc4cc5c(c(C(C)=O)c4C1)CCCC5)C3)CCCC2 (configuration not stated)
inactive: [1] 12.6 µM | [2] > 100 µM | [3] 48.8 µM | [4] 92.5 µM | [5] > 100 µM | [6] > 100 µM | [19] > 100 µM | [7] > 100 µM | [8] > 100 µM | [9] > 100 µM | [10] 29.2 µM | [11] 34.1 µM | [12] > 100 µM | [20] > 100 µM | [14] > 100 µM | [16] > 100 µM | [17] > 100 µM | [18] > 100 µM
